Assay results published in PubChem BioAssay (NCI).
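Results reflect a 48-hour exposure of cells in 96-well plates to compound at five concentrations. GI50 = concentration required for 50% inhibition of growth. TGI: total growth inhibition.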

Assays:
Assay in all cases: DTP human tumour cell line panel, 48 h
ACHN renal = test system: ACHN renal
UACC-62 melanoma = test system: UACC-62 melanoma
OVCAR-4 ovarian = test system: OVCAR-4 ovarian
T-47D breast = test system: T-47D breast
SW-620 colon = test system: SW-620 colon
NCI-H23 lung = test system: NCI-H23 lung
HL-60(TB) leukemia = test system: HL-60(TB) leukemia
SN12C renal = test system: SN12C renal
TK-10 renal = test system: TK-10 renal
CCRF-CEM leukemia = test system: CCRF-CEM leukemia
OVCAR-5 ovarian = test system: OVCAR-5 ovarian
MALME-3M melanoma = test system: MALME-3M melanoma
SK-MEL-2 melanoma = test system: SK-MEL-2 melanoma
MCF7 breast = test system: MCF7 breast
SNB-19 CNS = test system: SNB-19 CNS
RPMI-8226 leukemia = test system: RPMI-8226 leukemia
BT-549 breast = test system: BT-549 breast
NCI-H226 lung = test system: NCI-H226 lung
SK-MEL-5 melanoma = test system: SK-MEL-5 melanoma
PC-3 prostate = test system: PC-3 prostate
SF-295 CNS = test system: SF-295 CNS
K-562 leukemia = test system: K-562 leukemia
HT29 colon = test system: HT29 colon
KM12 colon = test system: KM12 colon
HOP-92 NSCLC = test system: HOP-92 NSCLC
NCI-H522 lung = test system: NCI-H522 lung
SK-MEL-28 melanoma = test system: SK-MEL-28 melanoma
M14 melanoma = test system: M14 melanoma
MDA-MB-231 breast = test system: MDA-MB-231 breast
SNB-75 CNS = test system: SNB-75 CNS
SF-268 CNS = test system: SF-268 CNS
NCI-H460 lung = test system: NCI-H460 lung
DU-145 prostate = test system: DU-145 prostate
CAKI-1 renal = test system: CAKI-1 renal
UACC-257 melanoma = test system: UACC-257 melanoma
HS 578T breast = test system: HS 578T breast
HCT-15 colon = test system: HCT-15 colon
HCC-2998 colon = test system: HCC-2998 colon
HOP-62 NSCLC = test system: HOP-62 NSCLC
RXF 393 renal = test system: RXF 393 renal
IGROV1 ovarian = test system: IGROV1 ovarian
EKVX NSCLC = test system: EKVX NSCLC
SF-539 CNS = test system: SF-539 CNS
A498 renal = test system: A498 renal
SR leukemia = test system: SR leukemia
COLO 205 colon = test system: COLO 205 colon
UO-31 renal = test system: UO-31 renal
MDA-MB-435 = test system: MDA-MB-435
OVCAR-3 ovarian = test system: OVCAR-3 ovarian
A549 NSCLC = test system: A549 NSCLC
HCT-116 colon = test system: HCT-116 colon
LOX IMVI melanoma = test system: LOX IMVI melanoma
OVCAR-8 ovarian = test system: OVCAR-8 ovarian
786-0 renal = test system: 786-0 renal
MOLT-4 leukemia = test system: MOLT-4 leukemia
NCI/ADR-RES ovarian = test system: NCI/ADR-RES ovarian
U251 CNS = test system: U251 CNS

## NCCCNc1nc2ccccc2c2c(=O)c3cccc(F)c3sc12
ACHN renal
  GI50: 1200 nM
  TGI: 2430 nM
UACC-62 melanoma
  GI50: 1670 nM
  TGI: 3130 nM
OVCAR-4 ovarian
  GI50: 1760 nM
  TGI: 3580 nM
T-47D breast
  GI50: 1580 nM
  TGI: 3740 nM
SW-620 colon
  GI50: 1100 nM
  TGI: 2490 nM
NCI-H23 lung
  GI50: 1540 nM
  TGI: 3030 nM
HL-60(TB) leukemia
  GI50: 1880 nM
  TGI: 3950 nM
SN12C renal
  GI50: 1280 nM
  TGI: 2700 nM
TK-10 renal
  GI50: 1940 nM
  TGI: 3470 nM
CCRF-CEM leukemia
  GI50: 1420 nM
  TGI: 4160 nM
OVCAR-5 ovarian
  GI50: 1600 nM
  TGI: 3010 nM
MALME-3M melanoma
  GI50: 1570 nM
  TGI: 3050 nM
SK-MEL-2 melanoma
  GI50: 1770 nM
  TGI: 3660 nM
MCF7 breast
  GI50: 1010 nM
  TGI: 2400 nM
SNB-19 CNS
  GI50: 1570 nM
  TGI: 3000 nM
RPMI-8226 leukemia
  GI50: 2030 nM
  TGI: 4750 nM
BT-549 breast
  GI50: 11500 nM
  TGI: 29600 nM
NCI-H226 lung
  GI50: 1450 nM
  TGI: 3060 nM
SK-MEL-5 melanoma
  GI50: 1690 nM
  TGI: 3080 nM
PC-3 prostate
  GI50: 1670 nM
  TGI: 3260 nM
SF-295 CNS
  GI50: 1740 nM
  TGI: 3190 nM
K-562 leukemia
  GI50: 1360 nM
  TGI: 4150 nM
HT29 colon
  GI50: 1250 nM
  TGI: 2690 nM
KM12 colon
  GI50: 1610 nM
  TGI: 3040 nM
HOP-92 NSCLC
  GI50: 1290 nM
  TGI: 3390 nM
NCI-H522 lung
  GI50: 1610 nM
  TGI: 3280 nM
SK-MEL-28 melanoma
  GI50: 1770 nM
  TGI: 3230 nM
M14 melanoma
  GI50: 1800 nM
  TGI: 3560 nM
MDA-MB-231 breast
  GI50: 1280 nM
  TGI: 2750 nM
SNB-75 CNS
  GI50: 1610 nM
  TGI: 3210 nM
SF-268 CNS
  GI50: 1470 nM
  TGI: 3350 nM
NCI-H460 lung
  GI50: 493 nM
  TGI: 1770 nM
DU-145 prostate
  GI50: 1230 nM
  TGI: 2530 nM
CAKI-1 renal
  GI50: 1420 nM
  TGI: 2750 nM
UACC-257 melanoma
  GI50: 1970 nM
  TGI: 3810 nM
HS 578T breast
  GI50: 1720 nM
  TGI: 3970 nM
HCT-15 colon
  GI50: 1130 nM
  TGI: 2390 nM
HCC-2998 colon
  GI50: 1640 nM
  TGI: 3410 nM
HOP-62 NSCLC
  GI50: 1500 nM
  TGI: 3150 nM
RXF 393 renal
  GI50: 1430 nM
  TGI: 2810 nM
IGROV1 ovarian
  GI50: 798 nM
  TGI: 2220 nM
EKVX NSCLC
  GI50: 1500 nM
  TGI: 3000 nM
SF-539 CNS
  GI50: 1590 nM
  TGI: 2970 nM
A498 renal
  GI50: 1670 nM
  TGI: 3100 nM
SR leukemia
  GI50: 1570 nM
  TGI: > 100000 nM
COLO 205 colon
  GI50: 1600 nM
  TGI: 3690 nM
UO-31 renal
  GI50: 1010 nM
  TGI: 2240 nM
MDA-MB-435
  GI50: 1770 nM
  TGI: 3390 nM

## CN(C)CCCNc1nc2ccccc2c2c(=O)c3cc(F)ccc3sc12
ACHN renal
  GI50: 1560 nM
  TGI: 2920 nM
UACC-62 melanoma
  GI50: 1750 nM
  TGI: 3240 nM
OVCAR-4 ovarian
  GI50: 2000 nM
  TGI: 4350 nM
SW-620 colon
  GI50: 1620 nM
  TGI: 3180 nM
OVCAR-3 ovarian
  GI50: 1670 nM
  TGI: 3170 nM
NCI-H23 lung
  GI50: 1670 nM
  TGI: 3170 nM
HL-60(TB) leukemia
  GI50: 2020 nM
  TGI: 4140 nM
A549 NSCLC
  GI50: 2040 nM
  TGI: 4810 nM
SN12C renal
  GI50: 1610 nM
  TGI: 3150 nM
TK-10 renal
  GI50: 1900 nM
  TGI: 3670 nM
CCRF-CEM leukemia
  GI50: 2230 nM
  TGI: 5310 nM
OVCAR-5 ovarian
  GI50: 1570 nM
  TGI: 2950 nM
MALME-3M melanoma
  GI50: 1620 nM
  TGI: 3050 nM
SK-MEL-2 melanoma
  GI50: 2000 nM
  TGI: 4070 nM
MCF7 breast
  GI50: 1130 nM
  TGI: 2660 nM
HCT-116 colon
  GI50: 1510 nM
  TGI: 3190 nM
SNB-19 CNS
  GI50: 1650 nM
  TGI: 3080 nM
RPMI-8226 leukemia
  GI50: 2320 nM
  TGI: 5370 nM
LOX IMVI melanoma
  GI50: 1630 nM
  TGI: 3050 nM
BT-549 breast
  GI50: 10100 nM
  TGI: 22900 nM
NCI-H226 lung
  GI50: 1710 nM
  TGI: 3340 nM
OVCAR-8 ovarian
  GI50: 2090 nM
  TGI: 4910 nM
SK-MEL-5 melanoma
  GI50: 1700 nM
  TGI: 3120 nM
PC-3 prostate
  GI50: 1800 nM
  TGI: 3530 nM
SF-295 CNS
  GI50: 1780 nM
  TGI: 3270 nM
K-562 leukemia
  GI50: 2330 nM
  TGI: 8350 nM
HT29 colon
  GI50: 1700 nM
  TGI: 3710 nM
KM12 colon
  GI50: 1740 nM
  TGI: 3300 nM
HOP-92 NSCLC
  GI50: 1170 nM
  TGI: 3960 nM
NCI-H522 lung
  GI50: 1890 nM
  TGI: 3980 nM
SK-MEL-28 melanoma
  GI50: 1760 nM
  TGI: 3190 nM
786-0 renal
  GI50: 1470 nM
  TGI: 3020 nM
M14 melanoma
  GI50: 1980 nM
  TGI: 3750 nM
MDA-MB-231 breast
  GI50: 1370 nM
  TGI: 2750 nM
SNB-75 CNS
  GI50: 1330 nM
  TGI: 2750 nM
SF-268 CNS
  GI50: 1530 nM
  TGI: 3160 nM
MOLT-4 leukemia
  GI50: 2130 nM
  TGI: 4480 nM
NCI-H460 lung
  GI50: 1760 nM
  TGI: 3440 nM
DU-145 prostate
  GI50: 1680 nM
  TGI: 3160 nM
CAKI-1 renal
  GI50: 1580 nM
  TGI: 2940 nM
UACC-257 melanoma
  GI50: 2080 nM
  TGI: 4210 nM
HS 578T breast
  GI50: 1660 nM
  TGI: 3560 nM
HCT-15 colon
  GI50: 1650 nM
  TGI: 3200 nM
HCC-2998 colon
  GI50: 1670 nM
  TGI: 3240 nM
HOP-62 NSCLC
  GI50: 1980 nM
  TGI: 4200 nM
RXF 393 renal
  GI50: 1460 nM
  TGI: 2910 nM
IGROV1 ovarian
  GI50: 1470 nM
  TGI: 2940 nM
EKVX NSCLC
  GI50: 1590 nM
  TGI: 3240 nM
NCI/ADR-RES ovarian
  GI50: 1620 nM
  TGI: 3180 nM
SF-539 CNS
  GI50: 1610 nM
  TGI: 3010 nM
A498 renal
  GI50: 1810 nM
  TGI: 3680 nM
SR leukemia
  GI50: 4010 nM
  TGI: > 100000 nM
COLO 205 colon
  GI50: 2120 nM
  TGI: 5030 nM
U251 CNS
  GI50: 1900 nM
  TGI: 4410 nM
UO-31 renal
  GI50: 1480 nM
  TGI: 2830 nM
MDA-MB-435
  GI50: 1740 nM
  TGI: 3360 nM
